Results reported in PubChem BioAssay (NCI).
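Step 1: Grow cells in 96-well plates. Step 2: Expose to compound for 48 hours at 5 concentrations. Step 3: Interpolate endpoints linearly; if unreached, use highest concentration. TGI denotes the concentration required for complete inhibition of growth.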

Assays:
Test in all cases: DTP human tumour cell line panel, 48 h
SN12C renal = tested on: SN12C renal
MDA-N = tested on: MDA-N
HCC-2998 colon = tested on: HCC-2998 colon
HT29 colon = tested on: HT29 colon
NCI/ADR-RES ovarian = tested on: NCI/ADR-RES ovarian
HL-60(TB) leukemia = tested on: HL-60(TB) leukemia
LOX IMVI melanoma = tested on: LOX IMVI melanoma
UACC-257 melanoma = tested on: UACC-257 melanoma
RXF 393 renal = tested on: RXF 393 renal
A549 NSCLC = tested on: A549 NSCLC
OVCAR-8 ovarian = tested on: OVCAR-8 ovarian
HS 578T breast = tested on: HS 578T breast
SF-539 CNS = tested on: SF-539 CNS
SK-MEL-2 melanoma = tested on: SK-MEL-2 melanoma
HCT-15 colon = tested on: HCT-15 colon
M14 melanoma = tested on: M14 melanoma
SNB-75 CNS = tested on: SNB-75 CNS
KM12 colon = tested on: KM12 colon
U251 CNS = tested on: U251 CNS
HCT-116 colon = tested on: HCT-116 colon
ACHN renal = tested on: ACHN renal
UACC-62 melanoma = tested on: UACC-62 melanoma
MOLT-4 leukemia = tested on: MOLT-4 leukemia
SNB-19 CNS = tested on: SNB-19 CNS
SK-MEL-5 melanoma = tested on: SK-MEL-5 melanoma
UO-31 renal = tested on: UO-31 renal
T-47D breast = tested on: T-47D breast
HOP-62 NSCLC = tested on: HOP-62 NSCLC
SW-620 colon = tested on: SW-620 colon
OVCAR-4 ovarian = tested on: OVCAR-4 ovarian
TK-10 renal = tested on: TK-10 renal
OVCAR-5 ovarian = tested on: OVCAR-5 ovarian
NCI-H23 lung = tested on: NCI-H23 lung
K-562 leukemia = tested on: K-562 leukemia
HOP-92 NSCLC = tested on: HOP-92 NSCLC
OVCAR-3 ovarian = tested on: OVCAR-3 ovarian
SK-MEL-28 melanoma = tested on: SK-MEL-28 melanoma
CAKI-1 renal = tested on: CAKI-1 renal
COLO 205 colon = tested on: COLO 205 colon
CCRF-CEM leukemia = tested on: CCRF-CEM leukemia
MDA-MB-435 = tested on: MDA-MB-435
SF-295 CNS = tested on: SF-295 CNS
RPMI-8226 leukemia = tested on: RPMI-8226 leukemia
EKVX NSCLC = tested on: EKVX NSCLC
SR leukemia = tested on: SR leukemia
NCI-H460 lung = tested on: NCI-H460 lung
MDA-MB-231 breast = tested on: MDA-MB-231 breast
A498 renal = tested on: A498 renal
SF-268 CNS = tested on: SF-268 CNS
DU-145 prostate = tested on: DU-145 prostate
SK-OV-3 ovarian = tested on: SK-OV-3 ovarian
NCI-H226 lung = tested on: NCI-H226 lung
PC-3 prostate = tested on: PC-3 prostate
MALME-3M melanoma = tested on: MALME-3M melanoma
786-0 renal = tested on: 786-0 renal
MCF7 breast = tested on: MCF7 breast
NCI-H522 lung = tested on: NCI-H522 lung
IGROV1 ovarian = tested on: IGROV1 ovarian

Cn1cc(C(=O)c2nccc3c2cnc2ccccc23)ccc1=O
TGI (SN12C renal): > 100 µM
TGI (MDA-N): > 100 µM
TGI (HCC-2998 colon): > 100 µM
TGI (HT29 colon): > 100 µM
TGI (NCI/ADR-RES ovarian): > 100 µM
TGI (HL-60(TB) leukemia): > 100 µM
TGI (LOX IMVI melanoma): > 100 µM
TGI (UACC-257 melanoma): > 100 µM
TGI (RXF 393 renal): 8.62 µM
TGI (A549 NSCLC): > 100 µM
TGI (OVCAR-8 ovarian): > 100 µM
TGI (HS 578T breast): > 100 µM
TGI (SF-539 CNS): > 100 µM
TGI (SK-MEL-2 melanoma): > 100 µM
TGI (HCT-15 colon): > 100 µM
TGI (M14 melanoma): > 100 µM
TGI (SNB-75 CNS): > 100 µM
TGI (KM12 colon): > 100 µM
TGI (U251 CNS): > 100 µM
TGI (HCT-116 colon): > 100 µM
TGI (ACHN renal): > 100 µM
TGI (UACC-62 melanoma): > 100 µM
TGI (MOLT-4 leukemia): > 100 µM
TGI (SNB-19 CNS): > 100 µM
TGI (SK-MEL-5 melanoma): > 100 µM
TGI (UO-31 renal): > 100 µM
TGI (T-47D breast): > 100 µM
TGI (HOP-62 NSCLC): > 100 µM
TGI (SW-620 colon): > 100 µM
TGI (OVCAR-4 ovarian): > 100 µM
TGI (TK-10 renal): > 100 µM
TGI (OVCAR-5 ovarian): > 100 µM
TGI (NCI-H23 lung): > 100 µM
TGI (K-562 leukemia): > 100 µM
TGI (HOP-92 NSCLC): > 100 µM
TGI (OVCAR-3 ovarian): > 100 µM
TGI (SK-MEL-28 melanoma): > 100 µM
TGI (CAKI-1 renal): > 100 µM
TGI (COLO 205 colon): > 100 µM
TGI (CCRF-CEM leukemia): > 100 µM
TGI (MDA-MB-435): > 100 µM
TGI (SF-295 CNS): > 100 µM
TGI (RPMI-8226 leukemia): > 100 µM
TGI (EKVX NSCLC): > 100 µM
TGI (SR leukemia): 49.7 µM
TGI (NCI-H460 lung): > 100 µM
TGI (MDA-MB-231 breast): > 100 µM
TGI (A498 renal): > 100 µM
TGI (SF-268 CNS): > 100 µM
TGI (DU-145 prostate): > 100 µM
TGI (SK-OV-3 ovarian): > 100 µM
TGI (NCI-H226 lung): > 100 µM
TGI (PC-3 prostate): > 100 µM
TGI (MALME-3M melanoma): > 100 µM
TGI (786-0 renal): > 100 µM

c1ccc(COc2ccc(CC3SCCCS3)cc2)cc1
TGI (MDA-N): > 100 µM
TGI (HCC-2998 colon): > 100 µM
TGI (HT29 colon): > 100 µM
TGI (HL-60(TB) leukemia): > 100 µM
TGI (MCF7 breast): > 100 µM
TGI (LOX IMVI melanoma): > 100 µM
TGI (UACC-257 melanoma): > 100 µM
TGI (A549 NSCLC): > 100 µM
TGI (OVCAR-8 ovarian): > 100 µM
TGI (HCT-15 colon): > 100 µM
TGI (M14 melanoma): > 100 µM
TGI (HCT-116 colon): > 100 µM
TGI (ACHN renal): > 100 µM
TGI (NCI-H522 lung): > 100 µM
TGI (UACC-62 melanoma): > 100 µM
TGI (MOLT-4 leukemia): > 100 µM
TGI (SNB-19 CNS): > 100 µM
TGI (SK-MEL-5 melanoma): > 100 µM
TGI (T-47D breast): > 100 µM
TGI (HOP-62 NSCLC): > 100 µM
TGI (SW-620 colon): > 100 µM
TGI (OVCAR-4 ovarian): > 100 µM
TGI (TK-10 renal): > 100 µM
TGI (K-562 leukemia): > 100 µM
TGI (IGROV1 ovarian): > 100 µM
TGI (HOP-92 NSCLC): 74.3 µM
TGI (OVCAR-3 ovarian): > 100 µM
TGI (SK-MEL-28 melanoma): > 100 µM
TGI (CAKI-1 renal): > 100 µM
TGI (COLO 205 colon): > 100 µM
TGI (CCRF-CEM leukemia): > 100 µM
TGI (MDA-MB-435): > 100 µM
TGI (SF-295 CNS): > 100 µM
TGI (RPMI-8226 leukemia): > 100 µM
TGI (EKVX NSCLC): > 100 µM
TGI (SR leukemia): > 100 µM
TGI (NCI-H460 lung): > 100 µM
TGI (MDA-MB-231 breast): > 100 µM
TGI (SF-268 CNS): > 100 µM
TGI (DU-145 prostate): > 100 µM
TGI (PC-3 prostate): > 100 µM
TGI (MALME-3M melanoma): > 100 µM
